# Tested on: YAP/TAZ-TEAD transcription
# Assay: Reporter gene assay for measuring the inhibition of YAP/TAZ-TEAD transcription (TEAD-responsive element luciferase reporter in Hek293T cells)
# Format: cell-based
# Settings: Homo sapiens, HEK-293T, 24 h, Hek293T cells transiently transfected with TEAD-responsive element luciferase reporter; 24 hours incubation
# Procedure, shortened: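 Readout is SteadyLite luciferase luminescence from a TEAD-responsive element reporter transiently transfected into Hek293T cells, exposed to compounds for 24 h at 37 °C/5% CO2. IC50 derived from percent inhibition, scaled between vehicle basal activity (0%) and positive control inhibitor (100%).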
row,SMILES,IC50 [µM]
1,"C=CC(=O)NC1Cc2c(CN)cccc2N(c2ccc(C(F)(F)F)cc2)C1 (stereo not drawn) [compound 138, N-(5-(aminomethyl)-1-(4-(trifluoromethyl)phenyl)-1,2,3,4-tetrahydroquinolin-3-yl)acrylamide]",< 1
2,"C=CC(=O)NCC1Cc2ccccc2N([C@H]2CC[C@@H](C(F)(F)F)CC2)C1 (stereo partly drawn) [compound 144, cis-N-((1-(4-(trifluoromethyl)cyclohexyl)-1,2,3,4-tetrahydroquinolin-3-yl)methyl)acrylamide]",< 1
3,"C=CC(=O)NC1Cc2c(ccnc2N)N(c2ccc(C(F)(F)F)cc2)C1 (stereo not drawn) [compound 146, N-(5-amino-1-(4-(trifluoromethyl)phenyl)-1,2,3,4-tetrahydro-1,6-naphthyridin-3-yl)acrylamide]",< 1
4,"C=CC(=O)NCC1Cc2ccccc2N(c2ccc(C#N)nc2)C1 (stereo not drawn) [compound 151, N-((1-(6-cyanopyridin-3-yl)-1,2,3,4-tetrahydroquinolin-3-yl)methyl)acrylamide]",< 1
5,"CC(=O)NCC1Cc2c(C(=O)O)cccc2N(c2ccc(C(F)(F)F)cc2)C1 (stereo not drawn) [compound 155, 3-(acetamidomethyl)-1-(4-(trifluoromethyl)phenyl)-1,2,3,4-tetrahydroquinoline-5-carboxylic acid]",> 20
6,"C=CC(=O)NC1Cc2c(C(=O)NS(C)(=O)=O)cccc2N(c2ccc(C(F)(F)F)cc2)C1 (stereo not drawn) [compound 160, 3-acrylamido-N-(methylsulfonyl)-1-(4-(trifluoromethyl)phenyl)-1,2,3,4-tetrahydroquinoline-5-carboxamide]",> 20
7,"C=CC(=O)NC1Cc2c(-c3noc(=O)[nH]3)cccc2N(c2ccc(C(F)(F)F)cc2)C1 (stereo not drawn) [compound 166, N-(5-(5-oxo-4,5-dihydro-1,2,4-oxadiazol-3-yl)-1-(4-(trifluoromethyl)phenyl)-1,2,3,4-tetrahydroquinolin-3-yl)acrylamide]",> 20

# Results, then the compound that gave them:
row,IC50 [µM],SMILES
1,> 20,"C=CC(=O)NC1Cc2c(-c3nnn[nH]3)cccc2N(c2ccc(C(F)(F)F)cc2)C1 (stereo not drawn) [compound 137, N-(5-(1H-tetrazol-5-yl)-1-(4-(trifluoromethyl)phenyl)-1,2,3,4-tetrahydroquinolin-3-yl)acrylamide]"
2,< 1,"C=CC(=O)NCC1Cc2ccccc2N(C2CCC(F)(F)CC2)C1 (stereo not drawn) [compound 145, N-((1-(4,4-difluorocyclohexyl)-1,2,3,4-tetrahydroquinolin-3-yl)methyl)acrylamide]"
3,1 to 20,"CCC(=O)NCC1Cc2ccccc2N(c2ccc(C#N)cc2)C1 (stereo not drawn) [compound 148, N-((1-(4-cyanophenyl)-1,2,3,4-tetrahydroquinolin-3-yl)methyl)propionamide]"
4,1 to 20,"CCC(=O)NCC1Cc2ccccc2N(c2ccc(C(F)F)nc2)C1 (stereo not drawn) [compound 152, N-((1-(6-(difluoromethyl)pyridin-3-yl)-1,2,3,4-tetrahydroquinolin-3-yl)methyl)propionamide]"
5,> 20,"C=CC(=O)NCC1Cc2c(C(=O)NS(C)(=O)=O)cccc2N(c2ccc(C(F)(F)F)cc2)C1 (stereo not drawn) [compound 157, 3-(acrylamidomethyl)-N-(methylsulfonyl)-1-(4-(trifluoromethyl)phenyl)-1,2,3,4-tetrahydroquinoline-5-carboxamide]"
6,< 1,"C=CC(=O)NCC1Cc2ccccc2N(c2ccc(C=O)cc2)C1 (stereo not drawn) [compound 159, N-((1-(4-formylphenyl)-1,2,3,4-tetrahydroquinolin-3-yl)methyl)acrylamide]"
7,> 20,"C=CC(=O)NC1Cc2c(CC(=O)O)cccc2N(c2ccc(C(F)(F)F)cc2)C1 (stereo not drawn) [compound 162, 2-(3-acrylamido-1-(4-(trifluoromethyl)phenyl)-1,2,3,4-tetrahydroquinolin-5-yl)acetic acid]"
8,> 20,"C=CC(=O)NC1Cc2c(CC(=O)NS(C)(=O)=O)cccc2N(c2ccc(C(F)(F)F)cc2)C1 (stereo not drawn) [compound 165, N-(5-(2-(methylsulfonamido)-2-oxoethyl)-1-(4-(trifluoromethyl)phenyl)-1,2,3,4-tetrahydroquinolin-3-yl)acrylamide]"
